Test results published in US5030715A, “Novel aminopimelic acids” (Roussel Uclaf, priority 1987, dated 1991).

How the values were obtained:
Strain IP 52 145 = test: Antibacterial activity in vivo, protection of infected mice; design: species or system Swiss female mice; settings: 5 mg/kg intramuscular 24 hours before intravenous infection with strain IP 52 145
Protocol: Swiss female mice weighing from 18 to 20 g (Charles River Cobs noninbred CDl) were used for this experiment with each group comprising 20 animals. The various products were put in solution in apyrogenous physiological serum to obtain concentrations of 1-10-100 mcg/mouse or: 50-500-5000 mcg/kg.
The lyophilized strain was re-hydrated with a few drops of soja trypcase broth (BioMerieux) and a tube of 10 ml of soja trypcase broth was inoculated with the suspension obtained and cultivated for 18 hours in an incubator at 37° C. Tubes of preserving agar (Pasteur) were inoculated with this culture by central stabing. After 18 hours of culture in an incubator at 37° C., the tubes were kept at 22° C.
A tube of soja trypcase broth was inoculated from a preserving agar and cultivated for 18 hours in an incubator at 37° C. Inclined soja trypcase agars were inoculated from this culture. […] The germ concentration was evaluated by counting with a Coulter Counter. […] The quantity of revivable germs injected was checked by spreading on Petri dishes containing trypcase agar.
Administration was done with an intramuscular injection in a volume of 0.05 ml/mouse 24 hours before infection. […] Where a clear increase in survival could not be detected after 21 days of observation, an average survival time (AST) was calculated for each group. […]

human monocytes [1] = test: Stimulation of monocyte cells: Interleukine-1 (IL-1) test on culture supernatants; type: cell-based; settings: for direct effect on human monocytes, production of an IL-1 activity in the culture supernatants: with 5 g of product
Protocol: (§1) The mononucleus cells of the circulating blood of normal donors were separated according to the standard technique described by Boyum using a Ficoll gradient. After washing, the mononuclear cells were incubated at 37° C. for one hour at the rate of 5.10^6 monocytes (NSE^+ cells) per ml of culture medium using 5 ml per culture flask. The culture medium used in this experiment was made up of RPMI 1640 with the addition of antibiotics and Hepes buffer. After one hour, the non-adherent cells were removed by washing the flasks with medium previously heated to 37° C. and the adherent cells composed mostly of monocytes (>90%) were put back in culture in complete RPMI medium without serum in the presence of various quantities of products under test, which had previously been put in solution in a buffer (Dulbecco) without Ca^2+ or Mg^2+. The culture was continued for 24 or 48 hours and the supernatants of the cells were then removed, centrifuged, separated into equal lots and held either at -80° C. or at -20° C. The supernatants of the culture were replaced in the flasks by the same amount of apyrogenous distilled water to dissolve the cells. The lysate was recovered, separated into equal lots and also kept at -20° C.
This test was described for the first time by Gery et al in 1972 [Gery et al 1972. Potentiation of the T lymphocyte response to mitogens. II. The cellular source of potentiating mediator (s) J. Exp. Med., 136-143]. It is based on the co-mitogen action of IL-1 in the presence of an antigen (mimicked by phytohemaglutinine in the test) on the thymocytes of mice. 1.5×10^6 thymocytes of mice C3H/HeJ (from the C.S.E.A.L. of Orleans) were put in culture for three days in the presence of various dilutions of supernatants and of cell lysates which may contain IL-1 activity and of PHA-P Wellcome (1 ug/ml) in culture plates with 96 flat bottomed wells, in a final volume of 200 ul of medium composed of RPMI 1640 containing in addition to antibiotics (penicillin 1 U/ml - streptomycin 1000 U/ml) of Hepes buffer, 1 mM of glutamine, 2 mM 5% of calf serum and […] of 2-mercapto ethanol. After 68 hours of culture, 1 μCi of tritiated thymidine was added to each well (^3 H-methyl thymidine, CEA Saclay, TMM79A specific activity 1 Ci/mM=37 GBq/mM) and the radioactivity incorporated by the cells was evaluated after the cultures had been filtered on Skatron type semi-automatic collecting apparatus and the filters had been counted in a liquid scintillation counter (Beckman). The results were expressed by the difference between the impulses per minute incorporated by the cultures in the presence of supernatants and the impulses per minute incorporated by the control cultures.

human monocytes [2] = test: Stimulation of monocyte cells: Tumor Necrosis Factor (TNF) test on culture supernatants; type: cell-based; settings: for direct effect on human monocytes, production of a TNF activity in the culture supernatants: with 5 g of product
Protocol: as §1
The TNF activity is shown by the toxicity of this factor on the L-929 target cells (sub-clone alpha) and the technique was sensitized by adding D actinomycin in the test. The L cells were distributed at a rate of 2×10^4 cells per well of a flat-bottomed microplate in 100 μl of RPMI 1640 medium enriched with 5% of calf serum, glutamine, Hepes buffer and antibiotics. After 24 hours, various dilutions of the supernatants under test were added in a volume of 100 μl, as well as a dose of D actinomycin of 1 μg/ml. After 24 hours of culture, the quantity of undissolved cells was evaluated by coloring the plates with crystal violet and measuring the optical density of the different wells on a multiscan reader. RESULTS: The product of Example 9 stimulated the monocytes and their production of IL-1 and TNF. Furthermore, there was synergy between the products and the gamma Interferon.

[3] = tested on: Salmonella typhimurium MZ11; test: Antibacterial activity in vitro, agar diffusion in Davis Mingioli medium; type: cell-based; settings: Salmonella enterica, product at 25 mg/l, 24 hours at 37° C., read-out: inhibition zones observed (diameter in mm)
Protocol: (§2) The antibacterial activity of the products was determined by the method of diffusion in a Davis Mingioli medium with 1% of agar added to it. The agars used were poured into Petri dishes at 48° C., after inoculating with […] with the bacterial strain under test. The inocula came from a culture made 24 hours earlier in a Davis Mingioli broth. After the agars had hardened, the aqueous solutions of the products being studied were introduced into wells (9 mm) hollowed in the medium with a punch. The inhibition zones observed (diameter in mm) were measured after incubation for 24 hours at 37° C.

Providencia sp. DU48 = test: as above; type: cell-based; settings: product at 25 mg/l, 24 hours at 37° C., read-out: inhibition zones observed (diameter in mm)
Protocol: as §2

Escherichia Coli 078 = test: as above; type: cell-based; settings: COLI078, product at 25 mg/l, 24 hours at 37° C., read-out: inhibition zones observed (diameter in mm)
Protocol: as §2

[4] = tested on: Enterobacter cloacae 1321E; test: as above; type: cell-based; settings: product at 25 mg/l, 24 hours at 37° C., read-out: inhibition zones observed (diameter in mm)
Protocol: as §2

[5] = human blood monocytes, culture 24 or 48 hours
[6] = in the presence of gamma Interferon (10^3 U/ml; CHU--IFN--g)

Compound: CCCCCCCCCCCCCCCCCC(=O)N[C@@H](C)C(=O)N[C@H](CCC(=O)NC(CC=CCC(=O)[O-])C(=O)[O-])C(=O)O.[Na+].[Na+] (some centres unmarked) [Example 8]
- protection, expressed in AST (average survival time) or in survival at the end of 21 days of observation (Strain IP 52 145): particularly significant protection

Compound: NC(CC=CCC(=O)O)C(=O)O (centres unmarked) [Example 5, 6-amino-3-heptenedioic acid]
- direct effect on human monocytes, production of an IL-1 activity in the culture supernatants (human monocytes [1]): showed a direct effect
- direct effect on human monocytes, production of a TNF activity in the culture supernatants (human monocytes [2]): showed a direct effect

Compound: C[C@H](N)C(=O)NC(C=CCCC(=O)O)C(=O)O (stereo partly drawn) [Example 13, 2-(L-alanylamino)-3-heptenedioic acid]
- zone of inhibition at 25 µg/mL [3]: 20 mm
- zone of inhibition at 25 µg/mL (Providencia sp. DU48): 22 mm
- zone of inhibition at 25 µg/mL (Escherichia Coli 078): 17.5 mm

Compound: C[C@H](N)C(=O)NC(CC=CCC(=O)O)C(=O)O (stereo partly drawn) [Example 6, 6-(L-alanylamino)-3-heptenedioic acid]
- zone of inhibition at 25 µg/mL [3]: 24 mm
- zone of inhibition at 25 µg/mL [4]: 10 mm

Compound: NCCCC[C@H](N)C(=O)NC(CC=CCC(=O)O)C(=O)O (stereo partly drawn) [Example 9, 6-(L-lysylamino)-3-heptenedioic acid]
- stimulation of the monocytes and their production of IL-1 (human monocytes [1]; [5]): stimulated
- production of monokines (IL-1) in the presence of gamma Interferon (human monocytes [1]; [6]): at least increased the production
- direct effect on human monocytes, production of an IL-1 activity in the culture supernatants (human monocytes [1]): showed a direct effect
- stimulation of the monocytes and their production of TNF (human monocytes [2]; [5]): stimulated
- production of monokines (TNF) in the presence of gamma Interferon (human monocytes [2]; [6]): at least increased the production
- direct effect on human monocytes, production of a TNF activity in the culture supernatants (human monocytes [2]): showed a direct effect
